Results reported in patent US5342842A, “Pyrimidone derivatives and analogs in the treatment of asthma or certain skin disorders” (Pfizer Inc., priority 1992, dated 1994).

Key:
[1] = tested on: human PDE; test: Inhibition of PDE in leukocyte homogenate preparation (human PDE assays, Dr. Hanifin); type: biochemical
Text: (§1) See Grewe et al., J. Allergy Clin. Immunol., v. 70, pp. 452-457, 1982. […] Dr. Hanifin has a source of human PDE isolated from mononuclear leukocyte. They were approached and readily agreed to test 5-[3-(exo-bicyclo[2.2.1]hept-2-yloxy)-4-methoxyphenyl]-3,4,5,6-tetrahydropyrimidin-2(1H)-one in their human PDE assays (see Cooper et al., cited above).

[2] = molecular target: Pulmonary Phosphodiesterase (PDEIV); test: Inhibition of pulmonary phosphodiesterase (PDEIV) from guinea pig lung, [3H]cAMP hydrolysis; type: biochemical; conditions: 1 μM [3H]-cAMP, 37° C., 10 minutes, 1% DMSO, read-out: IC50, concentration which inhibits 50% of specific hydrolysis of [3H]cAMP to [3H]5' AMP
Experimental: Lung tissue from guinea pigs was placed in a homogenization buffer solution (20 mM Bistris, 5 mM 2-mercaptoethanol, 2 mM benzamidine, 2 mM EDTA, 50 mM sodium acetate, pH 6.5) at a concentration of 10 ml/gm of tissue. The tissue was homogenized using a Tekmar Tissumizer at full speed for 10 seconds. Phenylmethylsulfonyl fluoride (PMSF, 50 mM in 2-propanol) was added to the buffer immediately prior to homogenization to give a final PMSF concentration of 50μM. The homogenate was centrifuged at 12,000×g for 10 minutes at 4° C. The supernatant was filtered through gauze and glass wool and then applied to a 17×1.5 cm column of DEAE-Sepharose CL-6B, pre-equilibrated with homogenization buffer, at 4° C. A flow rate of 1 ml/min was used. After the supernatant had passed through the column, the column is washed with a volume of homogenization buffer at least two times that of the supernatant. […] Fractions were saved based on specific PDEIV activity, determined by [^3 H]cAMP hydrolysis and the ability of a […]. […]
The reaction tubes were shaken and placed in a water bath (37° C.) for 10 minutes, at which time the reaction was stopped by placing the tubes in a boiling water bath for 2 minutes. […] After vortexing, 1 ml of the elution was added to 3 ml Atomlight scintillation fluid in an appropriate vial, vortexed, and counted for [^3 H].
Percent inhibition is determined by the formula: [formula] […]

[3] = tested on: Eosinophil Migration into Sensitized Lung Tissue; test: Inhibition of eosinophil migration into sensitized lung tissue challenged with antigen in guinea pigs (specific EPO response in lung lavage); type: in vivo, guinea pig; conditions: Cavia porcellus, po, P.O., guinea pigs sensitized with anti-OA IgG1, ovalbumin aerosol challenge, lavage after 18 hours
Experimental: Normal Hartley guinea pigs (300-350 grams) delivered from Charles River Laboratories were housed 5-7 days before sensitization. Guinea pigs were then sensitized with 0.5 mg/kg anti-OA IgG1 or saline as control. After 48-72 hours, guinea pigs were dosed P.O. in groups of six animals each with compounds at up to 32 mg/kg using 2% Tween 80 as vehicle. After 1-1.5 hours the animals were injected i.p. with 5 mg/kg pyrilamine. Thirty minutes following pyrilamine administration, animals were exposed to 10 minutes of a 0.1% ovalbumin (OA) aerosol followed by a 15 minute cloud decay period in a Tri-R Airborne Infection Apparatus (Compression air flow =20 L/min, main air flow =8.4 L/min). Guinea pigs were removed from the apparatus and caged for 18 hours prior to sacrifice and the following lung lavage procedure. […]
The aliquoted sample with Triton was diluted with 1 ml PBS/0.1% Triton buffer (pH 7.0). […] The O.D. of the mixture was measured at 490 nm, with background O.D. (blank tube) subtracted out.
Duplicate O.D. readings were averaged to obtain a single value for each animal. Average O.D. ± standard error is calculated using the six obtained values within each group of animals. Specific EPO response due to antigen challenge is calculated by: [formula] Percent inhibition of specific EPO response due to drug pretreatment is calculated by: [formula]

[4] = tested on: human PDE; test: Inhibition of PDE in intact human peripheral blood leukocyte preparation (human PDE assays, Dr. Hanifin); type: cell-based
Text: as §1

[5] = tested on: antigen-induced skin edema; test: Inhibition of skin edema in guinea pigs sensitized to ovalbumin; type: in vivo, guinea pig; conditions: 32 mg/Kg oral
Experimental: Four guinea pigs (Hartley, male, 350-400 g) were sensitized with anti-ovalbumin IgG1 antibody. Two guinea pigs were orally dosed with 32 mg/Kg of the test compound and two other guinea pigs were dosed with vehicle (2% Tween-80). One-hour after dosing, each guinea pig was injected intraveneously with 1 ml of Evan Blue (7 mg/ml) and then his skin was challenged intradermally with 0.1 ml of ovalbumin (0.1%) or PBS. Twenty minutes after challenge, the skin was removed and skin edematous site (circular blue spots at challenge sites) was examined visually.

In the case of `COc1ccc(C2CNC(=O)NC2)cc1O[C@@H]1C[C@H]2CC[C@@H]1C2` (relative stereo) [5-[3-(exo-bicyclo[2.2.1]hept-2-yloxy)-4-methoxyphenyl]-3,4,5,6-tetrahydropyrimidin-2(1H)-one], the IC50 ([1]; human leukocyte homogenate preparation) is reported as 200 nM, the “potency in inhibiting PDE compared to Ro-20-1724” value ([1]; leukocyte homogenate preparation, compared to Ro-20-1724) is reported as “even greater potency than Ro-20-1724” and the IC50 [2] is reported as 500 nM. For the same compound, the ED50 [3] was 10 mg/kg, the “potency in inhibiting PDE compared to Ro-20-1724” value ([4]; intact human peripheral blood leukocyte preparation, compared to Ro-20-1724) was “even greater potency than Ro-20-1724” and the IC50 ([4]; intact human peripheral blood leukocytes) was 300 nM. For the same compound, the “intensity and area of blue spots at antigen-challenged skin sites as compared to vehicle-dosed animals” value ([5]; two guinea pigs, intradermal ovalbumin (0.1%), 20 minutes after challenge, visual examination) was “markedly reduced” and the “effectiveness against antigen-induced skin edema in guinea pigs” value ([5]; conclusion of the test) was “effective against antigen-induced skin edema in guinea pigs”.
